Patent publication US11696913B2, “Prolonged ectoparasite-controlling agent for animal” (MITSUI CHEMICALS AGRO, INC., priority 2017, dated 2023)
Where two headings read alike, the source gives them in different places.

Key:
Spodoptera litura = experiment: Insecticidal testing against common cutworm; assay type: in vivo; settings: foliar, 144 h, concentration 100 ppm, cabbage leaf dip, second-stage larvae, after 6 days, read-out: pesticidal rate
Excerpt: Insecticidal Testing Against Common Cutworm (Spodoptera litura)

Ctenocephalides felis [1] = experiment: Ctenocephalides felis in-vitro feeding test with fleas (CTECFE oral); settings: 48 hours, read-out: insecticidal feeding activity; for pest or weed control at 0.032 ppm: dose 0.032 ppm in citrated cattle blood; for pest or weed control at 0.16 ppm: dose 0.16 ppm in citrated cattle blood; for pest or weed control at 0.8 ppm: dose 0.8 ppm in citrated cattle blood; for pest or weed control at 4 ppm: dose 4 ppm in citrated cattle blood
In short: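 About 20 unfed adult cat fleas fed through parafilm on citrated cattle blood containing test substance (DMSO solution diluted in blood), held at about 37° C. Kill rate scored after 48 hours, 100% meaning all fleas dead.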

Plutella xylostella = experiment: Insecticidal testing against diamondback moth; assay type: in vivo; settings: foliar, 144 h, concentration 100 ppm, cabbage leaf dip, third-stage larvae, after 6 days, read-out: pesticidal rate
Excerpt: Insecticidal Testing Against Diamondback Moth (Plutella xylostella)

[2] = system: Rhipicephalus (Boophilus) microplus; experiment: In vitro injection test with Rhipicephalus (Boophilus) microplus (BOOPMI Inj); settings: 168 h, laid fertile eggs after 7 days, read-out: acaricidal activity; for pest or weed control at 32 ng: dose 0.032 μg/animal injected; for pest or weed control at 0.00016 mg: dose 0.16 μg/animal injected; for pest or weed control at 0.0008 mg: dose 0.8 μg/animal injected; for pest or weed control at 6.4 ng: dose 0.0064 μg/animal injected
In short: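 Test substance in DMSO; 1 μl injected into abdomen of each of 5 engorged adult female ticks, then held at 28° C., 85% rel. hum. Activity scored after 7 days from laying of fertile eggs: 100% = no eggs or all infertile, 0% = all eggs fertile.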

Ctenocephalides felis [3] = experiment: Systemic treatment in-vivo test with cat flea on rats; settings: Ctenocephalides felis, ip, intraperitoneal injection, 10 mg/kg
Description: Systemic Treatment In-Vivo Test with American Dog Tick Nymph and Cat Flea on Rats
Type of study and overall study design: The method is a randomized non-blinded efficacy study in accordance with European animal welfare requirements. Rats (Rattus norvegicus) were randomized based on pre-treatment flea counts. The efficacy of treatment was determined by comparison of the flea and tick counts of different treatment groups versus the placebo-treated control group. The experimental unit was the individual study animal. Method and route of administration: The compound was applied in a suitable solvent and carrier (more specifically, added to glycerol formal; in case of poorly soluble compounds, a solvent mixture with up to 25% by volume of N-methyl pyrrolidone may be used.) considering the individual body weight as an intraperitoneal injection.
Experimental infestation: On the day of treatment and weekly thereafter, 30 ticks (D. variabilis nymphs) were released onto the back of each rat, and 30 fleas (C. felis) were released onto the back of each rat 24 h later.
Tick and Flea counting: Rats were thoroughly examined and ticks and fleas were manually removed 48 h (±4 h) after tick infestation and 24 h after flea infestation. Live fleas and live attached engorged ticks were counted. In non-evident cases, engorgement status was evaluated by squeezing the tick on a filter paper to find traces of blood as sign for engorgement.

Rhipicephalus sanguineus = experiment: In vitro contact test with adult hard ticks (Rhipicephalus sanguineus); settings: read-out: acaricidal activity; for pest or weed control at 0.2 µg/cm2, 0.2 µg/cm2: dose 0.2 μg/cm^2, 48 h; for pest or weed control at 1 µg/cm2, 1 µg/cm2: dose 1 μg/cm^2, 48 h
In short: (§1)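 Adult R. sanguineus, I. ricinus, D. variabilis or A. americanum nymphs exposed in glass vials coated with compound from acetone (900 ppm gives 5 μg/cm^2). Held 48 h at room temperature (R. sanguineus) or 21° C., 85% rel. hum.; then heated at 45-50° C. ≤5 min, motionless or uncoordinated ticks scored dead/moribund.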

Ctenocephalides felis [4] = experiment: In vitro contact test with fleas; settings: read-out: insecticidal activity; for pest or weed control at 0.2 µg/cm2, 0.2 µg/cm2: dose 0.2 μg/cm^2, dead or moribund fleas after 48 h; for pest or weed control at 1 µg/cm2, 1 µg/cm2: dose 1 μg/cm^2, dead or moribund fleas after 48 h; for pest or weed control at 0.04 µg/cm2, 0.04 µg/cm2: dose 0.04 μg/cm^2, dead or moribund fleas after 48 h
In short: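 Adult male and female cat fleas (5-10 per tube) placed in glass tubes coated with compound from acetone solution (900 ppm gives 5 μg/cm^2), kept at room temperature and ambient humidity. After 48 h, motionless or uncoordinated fleas scored dead or moribund; activity expressed as % dead or moribund.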

Laodelphax striatellus = experiment: Insecticidal testing against small brown planthopper; assay type: in vivo; settings: 144 h, concentration 100 ppm, sprayed rice seedlings, after 6 days, read-out: pesticidal rate
In short: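 Acetone solution of compound at a set concentration sprayed onto rice seedlings, air-dried, then exposed to 10 planthoppers (one group). Held at 25° C; survival rate recorded after 6 days.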

Amblyomma americanum = experiment: In vitro contact test with hard ticks (Amblyomma americanum nymphs); settings: read-out: acaricidal activity; for pest or weed control at 0.2 µg/cm2, 0.2 µg/cm2: dose 0.2 μg/cm^2, 48 h; for pest or weed control at 1 µg/cm2, 1 µg/cm2: dose 1 μg/cm^2, 48 h
In short: as §1

Ixodes ricinus = experiment: In vitro contact test with adult hard ticks (Ixodes ricinus); settings: read-out: acaricidal activity; for pest or weed control at 0.2 µg/cm2, 0.2 µg/cm2: dose 0.2 μg/cm^2, 48 h; for pest or weed control at 1 µg/cm2, 1 µg/cm2: dose 1 μg/cm^2, 48 h; for pest or weed control at 5 µg/cm2, 5 µg/cm2: dose 5 μg/cm^2, 48 h
In short: as §1

Dermacentor variabilis = experiment: In vitro contact test with adult hard ticks (Dermacentor variabilis); settings: read-out: acaricidal activity; for pest or weed control at 0.04 µg/cm2, 0.04 µg/cm2: dose 0.04 μg/cm^2, 48 h; for pest or weed control at 0.2 µg/cm2, 0.2 µg/cm2: dose 0.2 μg/cm^2, 48 h; for pest or weed control at 1 µg/cm2, 1 µg/cm2: dose 1 μg/cm^2, 48 h
In short: as §1

[5] = SD 2, read-out: Geometric mean percent reduction in live flea (Ctenocephalides felis) counts compared to untreated control rats
[6] = SD 9, read-out: Geometric mean percent reduction in live flea (Ctenocephalides felis) counts compared to untreated control rats
[7] = SD 16, read-out: Geometric mean percent reduction in live flea (Ctenocephalides felis) counts compared to untreated control rats
[8] = SD 23, read-out: Geometric mean percent reduction in live flea (Ctenocephalides felis) counts compared to untreated control rats

Row | Compound | pest or weed control at 100 ppm (Spodoptera litura) [%] | pest or weed control at 0.032 ppm (Ctenocephalides felis [1]) [%] | pest or weed control at 0.16 ppm (Ctenocephalides felis [1]) [%] | pest or weed control at 0.8 ppm (Ctenocephalides felis [1]) [%] | pest or weed control at 4 ppm (Ctenocephalides felis [1]) [%] | pest or weed control at 100 ppm (Plutella xylostella) [%] | pest or weed control at 32 ng [2] [%] | pest or weed control at 0.00016 mg [2] [%] | pest or weed control at 0.0008 mg [2] [%] | pest or weed control at 0.2 µg/cm2, 0.2 µg/cm2 (Rhipicephalus sanguineus) [%] | pest or weed control at 1 µg/cm2, 1 µg/cm2 (Rhipicephalus sanguineus) [%] | pest or weed control at 0.2 µg/cm2, 0.2 µg/cm2 (Ctenocephalides felis [4]) [%] | pest or weed control at 1 µg/cm2, 1 µg/cm2 (Ctenocephalides felis [4]) [%] | pest or weed control at 100 ppm (Laodelphax striatellus) [%] | pest or weed control at 6.4 ng [2] [%] | pest or weed control at 1 µg/cm2, 1 µg/cm2 (Amblyomma americanum) [%] | pest or weed control at 0.04 µg/cm2, 0.04 µg/cm2 (Ctenocephalides felis [4]) [%] | pest or weed control at 5 µg/cm2, 5 µg/cm2 (Ixodes ricinus) [%] | pest or weed control at 0.2 µg/cm2, 0.2 µg/cm2 (Dermacentor variabilis) [%] | pest or weed control at 1 µg/cm2, 1 µg/cm2 (Dermacentor variabilis) [%] | further results
1 | CN(C(=O)c1ccc(F)cc1)c1cccc(C(=O)Nc2c(I)cc(C(F)(C(F)(F)F)C(F)(F)F)cc2S(=O)(=O)C(F)(F)F)c1F [Compound 70, 2-fluoro-3-(4-fluoro-N-methylbenzamido)-N-(2-iodo-4-(perfluoropropan-2-yl)-6-((trifluoromethyl)sulfonyl)phenyl)benzamide] | ≥ 70 | 95 | 95 | 95 | 95 | ≥ 70 | 100 | 100 | 100 | 90 | 90 | 95 | 95 | ≥ 70 | – | – | – | – | – | – | inhibition in vivo at 10 mg/kg (Ctenocephalides felis [3]; [5]): 99%; inhibition in vivo at 10 mg/kg (Ctenocephalides felis [3]; [6]): 100%; inhibition in vivo at 10 mg/kg (Ctenocephalides felis [3]; [7]): 99%; inhibition in vivo at 10 mg/kg (Ctenocephalides felis [3]; [8]): 49%; inhibition in vivo at 10 mg/kg (Ctenocephalides felis [3]; SD 30, read-out: Geometric mean percent reduction in live flea (Ctenocephalides felis) counts compared to untreated control rats): 7%
2 | O=C(Nc1cccc(C(=O)Nc2c(I)cc(C(F)(C(F)(F)F)C(F)(F)F)cc2OC(F)F)c1F)c1ccc(F)cc1 [Compound 92] | ≥ 70 | 95 | 95 | 95 | 95 | ≥ 70 | 100 | 100 | 100 | 90 | 90 | 95 | 95 | ≥ 70 | 100 | 90 | 95 | 90 | 90 | – | pest or weed control at 0.2 µg/cm2, 0.2 µg/cm2 (Amblyomma americanum): 90%; pest or weed control at 0.04 µg/cm2, 0.04 µg/cm2 (Rhipicephalus sanguineus; dose 0.04 μg/cm^2, 48 h): 90%; pest or weed control at 0.2 µg/cm2, 0.2 µg/cm2 (Ixodes ricinus): 90%; pest or weed control at 1 µg/cm2, 1 µg/cm2 (Ixodes ricinus): 90%; pest or weed control at 0.04 µg/cm2, 0.04 µg/cm2 (Dermacentor variabilis): 90%
3 | CN(C(=O)c1ccc(F)nc1)c1cccc(C(=O)Nc2c(I)cc(C(F)(C(F)(F)F)C(F)(F)C(F)(F)F)cc2C(F)(F)F)c1F (centres unmarked) [Compound 81] | ≥ 70 | – | 95 | 95 | 95 | ≥ 70 | 100 | 100 | 100 | 90 | 90 | 95 | 95 | ≥ 70 | 100 | 90 | 95 | 90 | 90 | 90 | pest or weed control at 0.2 µg/cm2, 0.2 µg/cm2 (Amblyomma americanum): 90%; pest or weed control at 0.04 µg/cm2, 0.04 µg/cm2 (Dermacentor variabilis): 90%
4 | CN(C(=O)c1ccc(F)cc1)c1cccc(C(=O)Nc2c(Br)cc(C(F)(C(F)(F)F)C(F)(F)C(F)(F)F)cc2C(F)(F)F)c1F (centres unmarked) [Compound 93] | ≥ 70 | 95 | 95 | 95 | 95 | ≥ 70 | 100 | 100 | 100 | – | – | 95 | 95 | ≥ 70 | – | 90 | 95 | 90 | 90 | 90 | inhibition in vivo at 10 mg/kg (Ctenocephalides felis [3]; [5]): 100%; inhibition in vivo at 10 mg/kg (Ctenocephalides felis [3]; [6]): 97%; inhibition in vivo at 10 mg/kg (Ctenocephalides felis [3]; [7]): 68%; inhibition in vivo at 10 mg/kg (Ctenocephalides felis [3]; [8]): 14%
5 | CN(C(=O)c1ccc(F)cc1)c1cccc(C(=O)Nc2c(Br)cc(C(F)(C(F)(F)F)C(F)(F)F)cc2OC(F)F)c1F [Compound 89] | ≥ 70 | 95 | 95 | 95 | 95 | ≥ 70 | 100 | 100 | 100 | 90 | 90 | 95 | 95 | ≥ 70 | 100 | 90 | 95 | 90 | 90 | 90 | pest or weed control at 0.2 µg/cm2, 0.2 µg/cm2 (Ixodes ricinus): 90%; pest or weed control at 1 µg/cm2, 1 µg/cm2 (Ixodes ricinus): 90%
